Laboratory results as given in BindingDB's records for doi:10.1016/j.bmc.2008.09.053 (Chiba University, 2008).

Target: T1, Zinc finger protein GLI1 (Homo sapiens, UniProt P08151)
T1 sequence (P08151 whole entry): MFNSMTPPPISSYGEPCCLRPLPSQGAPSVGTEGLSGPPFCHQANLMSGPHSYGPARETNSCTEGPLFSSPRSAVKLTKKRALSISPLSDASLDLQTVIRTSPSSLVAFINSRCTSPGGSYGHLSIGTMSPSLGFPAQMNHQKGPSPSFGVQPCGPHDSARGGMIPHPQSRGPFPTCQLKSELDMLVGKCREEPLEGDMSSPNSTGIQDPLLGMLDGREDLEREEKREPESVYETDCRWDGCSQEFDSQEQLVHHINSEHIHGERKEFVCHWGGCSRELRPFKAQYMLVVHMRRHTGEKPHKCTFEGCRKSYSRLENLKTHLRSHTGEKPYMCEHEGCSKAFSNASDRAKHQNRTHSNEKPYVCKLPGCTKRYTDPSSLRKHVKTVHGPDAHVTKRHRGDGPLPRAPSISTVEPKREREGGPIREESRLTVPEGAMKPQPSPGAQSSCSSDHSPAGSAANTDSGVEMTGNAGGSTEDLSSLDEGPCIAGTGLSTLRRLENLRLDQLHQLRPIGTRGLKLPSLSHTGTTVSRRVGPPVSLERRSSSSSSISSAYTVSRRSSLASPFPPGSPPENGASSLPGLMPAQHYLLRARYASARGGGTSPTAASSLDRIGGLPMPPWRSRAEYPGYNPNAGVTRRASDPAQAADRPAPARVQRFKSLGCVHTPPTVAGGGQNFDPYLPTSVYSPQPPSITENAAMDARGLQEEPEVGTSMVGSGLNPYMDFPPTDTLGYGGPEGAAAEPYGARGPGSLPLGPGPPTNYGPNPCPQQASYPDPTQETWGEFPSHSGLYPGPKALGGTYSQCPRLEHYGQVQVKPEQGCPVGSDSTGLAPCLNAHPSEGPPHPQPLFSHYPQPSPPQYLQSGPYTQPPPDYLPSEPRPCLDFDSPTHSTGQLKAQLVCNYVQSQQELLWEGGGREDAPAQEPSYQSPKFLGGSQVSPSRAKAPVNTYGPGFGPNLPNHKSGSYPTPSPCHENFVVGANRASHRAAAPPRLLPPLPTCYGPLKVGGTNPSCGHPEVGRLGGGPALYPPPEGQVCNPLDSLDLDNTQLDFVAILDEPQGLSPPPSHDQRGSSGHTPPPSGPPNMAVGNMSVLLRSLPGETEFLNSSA
Assay: Inhibition of GLI1-mediated transcriptional activity in human HaCaT cells by luciferase based reporter gene assay

SMILES | IC50 [µM]
C=C(C)[C@@H]1CC[C@]2(C(=O)O)CC[C@]3(C)[C@H](CC[C@@H]4[C@@]5(C)[C@@H](C(=O)O)[C@H](O)C(C)(C)[C@@H]5CC[C@]43C)[C@@H]12 | > 200
C=C(C)[C@@H]1CC[C@]2(C(=O)O)CC[C@]3(C)[C@H](CC[C@@H]4[C@@]5(C)[C@H](CO)[C@@H](O)C(C)(C)[C@@H]5CC[C@]43C)[C@@H]12 [ceanothanolic acid] | 133
